B1: Wnt7a ligand: known activator of symmetric satellite cell divisions (protein, UniProt O00755 32-349, looked up)
Protein Wnt-7a: LGASIICNKIPGLAPRQRAICQSRPDAIIVIGEGSQMGLDECQFQFRNGRWNCSALGERTVFGKELKVGSREAAFTYAIIAAGVAHAITAACTQGNLSDCGCDKEKQGQYHRDEGWKWGGCSADIRYGIGFAKVFVDAREIKQNARTLMNLHNNEAGRKILEENMKLECKCHGVSGSCTTKTCWTTLPQFRELGYVLKDKYNEAVHVEPVRASRNKRPTFLKIKKPLSYRKPMDTDLVYIEKSPNYCEEDPVTGSVGTQGRACNKTAPQASGCDLMCCGRGYNTHQYARVWQCNCKFHWCCYVKCNTCSERTEMYTCK

Key:
[1] = system: satellite stem cells; assay: EDL myofiber culture, satellite stem cell divisions (Myf5-Cre/R26R-eYFP, wild type); assay type: cell-based, mouse; conditions: 42 h culture, Lapatinib 1 μM vs DMSO vehicle
Procedure: EGFR Signaling Regulates Asymmetric Satellite Stem Cell Divisions. To assess the role of EGFR in asymmetric division, the inventors cultured satellite cells in myofibers isolated from Extensor digitorum longus (EDL) muscles from Myf5-Cre/R26R-eYFP mice and performed both loss-of-function and gain-of-function experiments. Isolated myofibers were first cultured for 42 h with and without treatment with the Lapatinib, a specific inhibitor of EGFR signaling.
EDL fiber Culture and siRNA Transfection. Myofiber culture was performed as described in Dumont, N. A., et al. “Dystrophin expression in muscle stem cells regulates their polarity and asymmetric division.” Nat. Med. (2015) 21:1455-63, which is incorporated herein by reference. Briefly, EDL were carefully dissected and incubated in DMEM with 2% L-glutamine, 4.5% glucose, and 110 mg/mL sodium pyruvate (Gibco) containing 0.2% collagenase I (Sigma) for 45 min. Myofibers were isolated using gentle trituration with a glass pipet. Myofibers were cultured for 36, 42, or 72 h in DMEM containing 20% FBS (Wisent), 1% chick embryo extract (MP Biomedicals), and 2.5 ng/ml bFGF (Cedarlane). For pharmacological inhibition, Lapatinib ditosylate (1 mM in DMSO; Santa
Cruz Biotechnology), PTP1b inhibitor CAS 765317-72-4 (10 mM in DMSO; Santa Cruz Biotechnologies) was added to the culture medium for a final concentration of 1 μM or 10 μM, respectively; equal dilution of DMSO was used as vehicle control.
Transfection of satellite cells on myofibers was performed using lipofectamine RNAimax (Life Technologies) and validated Smartpool siRNAs for EGFR, Aurka, or scramble (SCR) (Dharmacon). Two transfections were performed at 4 h and 16 h after isolation of the myofibers as described in Le Grand, et al. (2009) Wnt7a activates the planar cell polarity pathway to drive the symmetric expansion of satellite stem cells. Cell Stem Cell 4, pp 535-547, which is incorporated herein by reference. Knockdown efficiencies of the siRNA were validated in myoblasts by western blot and qRT-PCR.

[2] = system: EGFR signaling; assay type: cell-based
[3] = system: satellite cell divisions; assay: FDB myofiber screening method validation (YFP(-) divisions); assay type: cell-based, mouse; conditions: control 62% (Wnt7a experiment), control 45% (EGF / PTP1b experiment)
Excerpt: EGFR pathway activators may be identified in a method of screening potential activators. The method includes visualizing isolated, cultured, and stained Flexor Digitorum Brevis (FDB) myofibers from Myf5-Cre/ROSA26-YFP mice in a plurality of Z-stack planes to create a projection image. Muscle satellite cells are identified in the projection image based on Pax7 expression. Of the identified muscle satellite cells: (i) satellite stem cells are identified based on the absence of YFP expression, and (ii) committed satellite progenitor cells are identified based on yellow fluorescence protein (YFP) expression. A potential EGFR pathway activator is administered to the FDB myofibers. The number of symmetric divisions of satellite myogenic cells, identified by the production of two YFP(+) satellite cells, are counted; the number of symmetric satellite stem cell divisions, identified by the production of two YFP(−) satellite cells, are counted; and the number of asymmetric satellite cell divisions, identified by the production of one YFP(+) and one YFP(−) satellite cell, are counted. The potential EGFR pathway activator is identified as an EGFR pathway activator when the percent of YFP(−) divisions that are asymmetric divisions is greater than the corresponding percent in a control sample. The expression “YFP(−) divisions” refers to all cell divisions where one of the daughter cells is YFP(−).
Identification of EGFR pathway activators. Flexor Digitorum brevis (FDB) fibers were isolated from Myf5-Cre/Rosa-YFP mice and digested in 0.25% Collagenase Type I (Sigma) in DMEM (Dulbecco's modified Eagle's medium; high glucose, L-glutamine with 110 mg/ml sodium pyruvate) for 2.5-3 h. Myofibers were dissociated using gentle trituration with a glass pipette.
Myofibers are cultured at 37° C., 5% CO2 for 42 h in myofiber culture media (DMEM supplemented with 20% FBS(Wisent), 1% Chicken Embryo extract (MP Biomediacals), 1% Penicillin/Streptomycin (Cederlane) and 2.5 ng/ml basic Fibroblast Growth Factor (Cedarlane).
Myofibers are first fixed in 2% Paraformaldehyde (PFA) for 5 mins. Myofibers are blocked for 1-2 h in 1% Bovine Serum Albumin, 0.5% TritonX-100, 5% HS and 0.01% Sodium Azide. Primary antibodies are applied in blocking solution for 2 h at room temperature or at 4° C. overnight. Myofibers are washed with PBS and stained with appropriate fluorescently labeled secondary antibodies (Alexa Fluor 488, 546) for 1 hat room temperature. Following washing with PBS, fiber nuclei are stained with DAPI for 5 min. The following antibodies are used: mouse anti-Pax7 (Developmental Studies Hybridoma Bank (DSHB)), chicken anti-GFP (cat. no. ab13970, Abcam).
Satellite cells are focused based on Channel 3 (DAPI) staining. Autofocus is performed by sampling seven (7) z-stacks taken at […] intervals for an extended depth of field of 85.3 μm.
Z-stack images were consolidated to create a projection image with all satellite cells in focus. Image acquisition of a projection image for analysis was created from seven (7) Z-stack images taken at 6.5 μm intervals, for an extended depth of field of 45.5 μm at 200 (Objective 20×) magnification. The projection direction was centered, where the median stacks fall within the center of each myofiber. […]
Potential satellite cells were first identified based on Channel 1 (Pax7) signal, and separated from other satellite cells based on intensity of fluorescence between cells. […]

| Molecule | decrease in the rate of asymmetric divisions ([1]; FIG. 1A) [%] | increase in the number of satellite stem cells ([1]; FIG. 1B) [%] | EGFR signaling at the concentration used in the screen [2] | percentage of YFP(-) divisions that were symmetric divisions [3] [%] |
| --- | --- | --- | --- | --- |
| CS(=O)(=O)CCNCc1ccc(-c2ccc3ncnc(Nc4ccc(OCc5cccc(F)c5)c(Cl)c4)c3c2)o1 [Lapatinib, reference compound] | 83 | 71 | completely abolishes EGFR signaling | – |
| B1 | – | – | – | 78 |
